Laboratory results as given in US20190373936A1, “COMPOSITION, METHOD FOR PRODUCING THE SAME AND USE THEREOF” (INFINITUS (CHINA) COMPANY LTD., priority 2018, published 2019).

Experiments:
[1] = system: SD rats of combined hyperlipidemia model; test: Function of facilitating lowering blood lipid: serum lipid indexes by ELISA in combined hyperlipidemia SD rat model; type: in vivo
Description: (§1) In the present disclosure, reference was made to the method for testing the function of facilitating lowering blood-lipid in the Technical specification for health care food inspection and evaluation (2012 Updated Edition). SPF grade male SD rats were used as experimental animals. After the adaption period, an animal model of the combined hyperlipidemia was established, and the rats were randomly divided into groups according to TC level. Three dosage groups were continuously administered with the composition provided by the present disclosure by gavage at a dosage of 500 mg/kg·BW (equaled to 5 times of recommendation amount for human), 1000 mg/kg·BW (equaled to 10 times of recommendation amount for human) and 2500 mg/kg·BW (equaled to 25 times of recommendation amount for human), respectively. The blank control group and the model control group were administered with the same volume of distilled water by gavage. Each group was weighed regularly. 30 days after the administration, blood samples were collected without fasting, and levels of TC, TG, HDL-C, LDL-C, ox-HDL, ox-LDL, apo-A1 and apo-β were tested.
Name: SPF grade male SD rats, body weight 170˜220 g
High-fat diet: maintenance diet with 20.0% sucrose, 15% lard, 1.2% cholesterol, 0.2% sodium cholate, appropriate amounts of casein, calcium hydrogen phosphate, rock powders and so on. Except for crude fat, water content, crude protein, crude fat, crude fiber, ash, calcium, phosphate and calcium:phosphate ratio reached the national standard for maintenance diet.
Surgical instruments, centrifuges, centrifuge tubes, electronic balances, punchers, gavage needles, enzyme-labeled instruments, heparin sodium, anesthetic, formalin, refrigerators, vortex mixer, weighing scale, serum total cholesterol (TC) ELISA kit, serum triglyceride (TG) ELISA kit, serum high-density lipoprotein cholesterol (HDL-C) ELISA kit, serum low-density lipoprotein cholesterol (LDL-C) ELISA kit, serum oxidized high-density lipoprotein cholesterol (ox-HDL-C) ELISA kit, serum oxidized low-density lipoprotein cholesterol (ox-LDL-C) ELISA kit, serum apolipoprotein A1 (apo-A1) ELISA kit, and serum apolipoprotein (apo-β) ELISA kit.
There were three dosage groups, two positive control groups, one blank control group and one model control group. In low-dosage group, the test sample was administered at a dosage of 5 times of the recommendation amount for human (500 mg/kg), and in middle-dosage and high-dosage groups, the dosages equaled to 10 times (1000 mg/kg) and 25 times (2500 mg/kg) of the recommendation amount for human. The dosage of the positive control group equaled to 5 times (omega: 150 mg/kg; and atorvastatin calcium: 0.83 mg/kg) of the recommendation amount for human. The blank control group and the model control group were administered with equal amount of distilled water at the same volume by gavage. The duration of the administration of the test sample was generally 30 days.
The compositions provided by the examples 1˜3, the powder formulations provided by the examples 4˜6 were accurately weighed, and an appropriate amount of distilled water was added to prepare the low-, middle- and high-dosages samples. The samples were prepared right before use.
(1) Adaptive period: In a barrier system, the rats were fed on maintenance diet and observed for 5˜7 days.
The rats were randomly divided into 22 groups, 6 per group. One group was fed on the maintenance diet as the blank control group. The other 21 groups were fed on high-fat diet as the model control group. The rats were weighed once a week.
20 days after the model control group was fed on high-fat diet, rats in the blank control group and the model control groups were subjected to blood collection (1˜1.5 mL of blood was collected from the tail vein) without fasting. After blood collection, the serum was quickly separated to a new centrifugal tube, stored at −20° C. before test. […]

[2] = Body weight of SD rats fed high-fat diet during administration of test sample; type: in vivo; settings: positive control groups (omega 150 mg/kg; atorvastatin calcium 0.83 mg/kg), 30 days
Description: as §1, with “The blank control group and the model control group were administered with the same volume of distilled water by gavage. Each group was weighed regularly. 30 days after the administration, blood samples were collected without fasting, and levels of TC, TG, HDL-C, LDL-C, ox-HDL, ox-LDL, apo-A1 and apo-β were tested.” left out
After grouping, each dosage group was orally administered with the test sample every day, the two positive groups were respectively orally administered with positive control samples (diluted Omega solution and diluted atorvastatin calcium solution), and the blank control group and the model control group were administered with the same volume of distilled water. […] After blood collection, the serum was quickly separated, and levels of TC, TG, HDL-C, LDL-C, ox-HDL-C, ox-LDL-C, apo-A1 and apo-β in serum were measured.

[3] = positive control groups (omega 150 mg/kg; atorvastatin calcium 0.83 mg/kg), 30 days

Question: Which “Effect on Apo-β content in serum of SD rats” value ([1]; compared with the model control group) does the source give for `CC(C)c1c(C(=O)Nc2ccccc2)c(-c2ccccc2)c(-c2ccc(F)cc2)n1CC[C@@H](O)C[C@@H](O)CC(=O)[O-].CC(C)c1c(C(=O)Nc2ccccc2)c(-c2ccccc2)c(-c2ccc(F)cc2)n1CC[C@@H](O)C[C@@H](O)CC(=O)[O-].[Ca+2]` [Atorvastatin Calcium, atorvastatin calcium] here?
Answer: decreased

Question: What about the “Apo-A1 levels in serum (Mean Value ± Standard Deviation)” value [1, 3] of the same compound?
Answer: 2693.75 ± 435.48 µg/mL

Question: What about the “Apo-β levels in serum (Mean Value ± Standard Deviation)” value [1, 3] of the same compound?
Answer: 735.00 ± 264.71 µg/mL

Question: And the “HDL-C levels in serum (Mean Value ± Standard Deviation)” value [1, 3]?
Answer: 919.74 ± 150.63 µmol/L

Question: And the “LDL-C levels in serum (Mean Value ± Standard Deviation)” value [1, 3]?
Answer: 853.24 ± 235.19 µmol/L

Question: And the “Ox-HDL-C levels in serum (Mean Value ± Standard Deviation)” value [1, 3]?
Answer: 35.88 ± 7.30 µg/L

Question: What about the “Ox-LDL-C levels in serum (Mean Value ± Standard Deviation)” value [1, 3] of the same compound?
Answer: 45.44 ± 7.40 µg/L

Question: And the “TC levels in serum (Mean Value ± Standard Deviation)” value [1, 3]?
Answer: 1117.14 ± 171.07 µmol/L

Question: And the “TG levels in serum (Mean Value ± Standard Deviation)” value [1, 3]?
Answer: 189.71 ± 45.83 µmol/L

Question: And the “Final Weight (Mean Value ± Standard Deviation)” value [2]?
Answer: 442.00 ± 40.77
